Activity calls are given as the source filed them. The rule behind the calls is not given here.
These molecules were tested on Escherichia coli (assay: Antimicrobial activity against Escherichia coli at 200 ug/disk).
Type: functional, organism-based

| Compound | Activity |
| --- | --- |
| C[C@@H]1C[C@H](O)[C@@H](O)CO1 | inactive |
| C[C@@H]1C[C@@H](O)[C@H](O)CO1 | inactive |
| CC1=C2CC(C)(C)C[C@H]3C[C@@]3(C(=O)O)[C@@H]2CC1=O | inactive |
| C/C=C\C(=O)O[C@@H]1[C@H](O)[C@@H](O)CO[C@@H]1C | inactive |
| C[C@@H]1C[C@@H](O)[C@@H](O)CO1 | inactive |

These molecules were tested on Staphylococcus aureus (assay: Antibacterial activity against Staphylococcus aureus at 200 ug/disk).
Type: functional, organism-based

| Compound | Activity |
| --- | --- |
| C[C@@H]1C[C@H](O)[C@@H](O)CO1 | inactive |
| C[C@@H]1C[C@@H](O)[C@H](O)CO1 | inactive |
| CC1=C2CC(C)(C)C[C@H]3C[C@@]3(C(=O)O)[C@@H]2CC1=O | inactive |
| C/C=C\C(=O)O[C@@H]1[C@H](O)[C@@H](O)CO[C@@H]1C | inactive |
| C[C@@H]1C[C@@H](O)[C@@H](O)CO1 | inactive |

The molecules below were run on Candida albicans (assay: Antifungal activity against Candida albicans at 200 ug/disk).
Type: functional, organism-based

| Compound | Activity |
| --- | --- |
| C[C@@H]1C[C@H](O)[C@@H](O)CO1 | inactive |
| C[C@@H]1C[C@@H](O)[C@H](O)CO1 | inactive |
| CC1=C2CC(C)(C)C[C@H]3C[C@@]3(C(=O)O)[C@@H]2CC1=O | inactive |
| C/C=C\C(=O)O[C@@H]1[C@H](O)[C@@H](O)CO[C@@H]1C | inactive |
| C[C@@H]1C[C@@H](O)[C@@H](O)CO1 | inactive |

— ChEMBL document CHEMBL1158757, “Ophiocerins A-D and ophioceric acid: tetrahydropyran derivatives and an africane sesquiterpenoid from the freshwater aquatic fungus Ophioceras venezuelense” (J Nat Prod, 2005)
